Consider 1 compound from publication PMC5218480 (PLoS ONE, 2017).

For this assay, the system named is MV-4-11 cells. Briefly: Gene expression microarray analysis (Affymetrix PrimeView) and GSEA. It is filed as cell-based, human. On the set-up: RFU PODN (11730768_x_at) / Fold change /veh PODN (11730768_x_at) / RFU LINC00158 (11744669_a_at) / Fold change /veh LINC00158 (11744669_a_at) / RFU DUSP10 (11751237_a_at) / Fold change /veh DUSP10 (11751237_a_at) / RFU ID3 (11757404_x_at) / Fold change /veh ID3 (11757404_x_at) / RFU PLEKHG5 (11737974_s_at) / Fold change /veh PLEKHG5 (11737974_s_at) / RFU LRRC4B (11730491_at) / Fold change /veh LRRC4B (11730491_at) / RFU GIMAP4 (11747438_a_at) / Fold change /veh GIMAP4 (11747438_a_at) / RFU KRT8 (11758183_x_at) / Fold change /veh KRT8 (11758183_x_at) / RFU CNN1 (11734310_a_at) / Fold change /veh CNN1 (11734310_a_at) / RFU VPS37D (11726825_at) / Fold change /veh VPS37D (11726825_at) / RFU C10orf10 (11716522_x_at) / Fold change /veh C10orf10 (11716522_x_at) / RFU KIR2DL2 /// KIR2DL4 /// KIR2DL5A /// KIR2DL5B /// KIR2DS1 /// KIR2DS2 /// KIR2DS3 /// KIR2DS4 /// KIR3DL3 /// KIR3DL3 /// KIR3DS1 (11738374_at) / Fold change /veh KIR2DL2 /// KIR2DL4 /// KIR2DL5A /// KIR2DL5B /// KIR2DS1 /// KIR2DS2 /// KIR2DS3 /// KIR2DS4 /// KIR3DL3 /// KIR3DL3 /// KIR3DS1 (11738374_at) / RFU C1QL1 (11718748_at) / Fold change /veh C1QL1 (11718748_at) / RFU TMPRSS4 (11747572_a_at) / Fold change /veh TMPRSS4 (11747572_a_at) / RFU HAMP (11756126_x_at) / Fold change /veh HAMP (11756126_x_at) / RFU RNFT2 (11725882_a_at) / Fold change /veh RNFT2 (11725882_a_at) / RFU NR4A2 (11747474_a_at) / Fold change /veh NR4A2 (11747474_a_at) / RFU ABCC12 (11746883_a_at) / Fold change /veh ABCC12 (11746883_a_at) / RFU TMEM136 (11760407_x_at) / Fold change /veh TMEM136 (11760407_x_at) / RFU CLDN22 /// WWC2 (11732394_at) / Fold change /veh CLDN22 /// WWC2 (11732394_at) / RFU HLA-DPB1 (11760878_x_at) / Fold change /veh HLA-DPB1 (11760878_x_at) / RFU SPINT1 (11716480_a_at) / Fold change /veh SPINT1 (11716480_a_at) / RFU GAP43 (11754022_s_at) / Fold change /veh GAP43 (11754022_s_at) / RFU A4GNT (11735810_at) / Fold change /veh A4GNT (11735810_at) / RFU PRB3 (11715151_x_at) / Fold change /veh PRB3 (11715151_x_at) / RFU TUBB4B (11761932_at) / Fold change /veh TUBB4B (11761932_at) / RFU CAPN14 (11732068_a_at) / Fold change /veh CAPN14 (11732068_a_at) / RFU TMCC2 (11721928_a_at) / Fold change /veh TMCC2 (11721928_a_at) / RFU IRGQ (11745062_a_at) / Fold change /veh IRGQ (11745062_a_at) / RFU FAM174B (11720279_a_at) / Fold change /veh FAM174B (11720279_a_at) / RFU TMPRSS4 (11748680_a_at) / Fold change /veh TMPRSS4 (11748680_a_at) / RFU FAM212B (11763350_a_at) / Fold change /veh FAM212B (11763350_a_at) / RFU PLEKHG5 (11743358_a_at) / Fold change /veh PLEKHG5 (11743358_a_at) / RFU ZSCAN30 (11745921_a_at) / Fold change /veh ZSCAN30 (11745921_a_at) / RFU CMKLR1 (11741424_a_at) / Fold change /veh CMKLR1 (11741424_a_at) / RFU LOC101060620 /// MAPK8IP1 (11723275_at) / Fold change /veh LOC101060620 /// MAPK8IP1 (11723275_at) / RFU SPTSSB (11747773_x_at) / Fold change /veh SPTSSB (11747773_x_at) / RFU PRSS12 (11739890_at) / Fold change /veh PRSS12 (11739890_at) / RFU BIN1 (11741810_x_at) / Fold change /veh BIN1 (11741810_x_at) / RFU WNT11 (11732464_a_at) / Fold change /veh WNT11 (11732464_a_at) / RFU C10orf10 (11716521_a_at) / Fold change /veh C10orf10 (11716521_a_at) / RFU C5orf56 (11738089_at) / Fold change /veh C5orf56 (11738089_at) / RFU CYB561 (11721691_x_at) / Fold change /veh CYB561 (11721691_x_at) / RFU ANKRD19P (11752326_a_at) / Fold change /veh ANKRD19P (11752326_a_at) / RFU OR2T12 /// OR2T33 /// OR2T8 (11738714_s_at) / Fold change /veh OR2T12 /// OR2T33 /// OR2T8 (11738714_s_at) / RFU VCAN (11748164_a_at) / Fold change /veh VCAN (11748164_a_at) / RFU JSRP1 (11732532_at) / Fold change /veh JSRP1 (11732532_at) / RFU KRTAP10-11 (11738290_x_at) / Fold change /veh KRTAP10-11 (11738290_x_at) / RFU MYO3A (11730013_a_at) / Fold change /veh MYO3A (11730013_a_at) / RFU EBF3 (11725865_a_at) / Fold change /veh EBF3 (11725865_a_at) / RFU CAMK2N1 (11719241_x_at) / Fold change /veh CAMK2N1 (11719241_x_at) / RFU C5orf56 (11738088_a_at) / Fold change /veh C5orf56 (11738088_a_at) / RFU OLFML3 (11715873_a_at) / Fold change /veh OLFML3 (11715873_a_at) / RFU LOC100653217 /// NTM (11731650_a_at) / Fold change /veh LOC100653217 /// NTM (11731650_a_at) / RFU MAPK11 (11762145_a_at) / Fold change /veh MAPK11 (11762145_a_at) / RFU FIZ1 (11724087_x_at) / Fold change /veh FIZ1 (11724087_x_at) / RFU OASL (11726364_x_at) / Fold change /veh OASL (11726364_x_at) / RFU SOX15 (11748057_x_at) / Fold change /veh SOX15 (11748057_x_at) / RFU CD79A (11719716_a_at) / Fold change /veh CD79A (11719716_a_at) / RFU HIST1H1D (11736915_at) / Fold change /veh HIST1H1D (11736915_at) / RFU CASKIN2 (11723855_a_at) / Fold change /veh CASKIN2 (11723855_a_at) / RFU LOC730098 (11760151_x_at) / Fold change /veh LOC730098 (11760151_x_at) / RFU OR4N2 (11742367_at) / Fold change /veh OR4N2 (11742367_at) / RFU PRRT2 (11749266_a_at) / Fold change /veh PRRT2 (11749266_a_at) / RFU SNX32 (11753110_a_at) / Fold change /veh SNX32 (11753110_a_at) / RFU CDHR5 (11726645_a_at) / Fold change /veh CDHR5 (11726645_a_at) / RFU RCAN1 (11760418_a_at) / Fold change /veh RCAN1 (11760418_a_at) / RFU FAM167A (11723789_a_at) / Fold change /veh FAM167A (11723789_a_at) / RFU FAM26E (11764081_at) / Fold change /veh FAM26E (11764081_at) / RFU ISYNA1 (11749810_s_at) / Fold change /veh ISYNA1 (11749810_s_at) / RFU ACY1 (11761880_at) / Fold change /veh ACY1 (11761880_at) / RFU 11764098_at / Fold change /veh 11764098_at / RFU SAMD14 (11745864_x_at) / Fold change /veh SAMD14 (11745864_x_at) / RFU NPB (11741838_a_at) / Fold change /veh NPB (11741838_a_at) / RFU TMPRSS6 (11731388_a_at) / Fold change /veh TMPRSS6 (11731388_a_at) / RFU KRTAP10-2 (11738614_at) / Fold change /veh KRTAP10-2 (11738614_at) / RFU ARHGAP8 /// PRR5-ARHGAP8 (11727945_x_at) / Fold change /veh ARHGAP8 /// PRR5-ARHGAP8 (11727945_x_at) / RFU KRTAP5-7 /// NADSYN1 (11734609_at) / Fold change /veh KRTAP5-7 /// NADSYN1 (11734609_at) / RFU RASL12 (11751679_a_at) / Fold change /veh RASL12 (11751679_a_at) / RFU CDKN2B (11736163_a_at) / Fold change /veh CDKN2B (11736163_a_at) / RFU PRF1 (11729649_at) / Fold change /veh PRF1 (11729649_at) / RFU, ZNF638 /// ZNF638-IT1 / Fold change vs veh, ZNF638 /// ZNF638-IT1 / RFU, PANK3 / Fold change vs veh, PANK3 / RFU, SH3YL1 / Fold change vs veh, SH3YL1 / RFU, ZEB2 / Fold change vs veh, ZEB2 / RFU, NRIP1 / Fold change vs veh, NRIP1 / RFU, PTTG1IP / Fold change vs veh, PTTG1IP / RFU, CAPN2 / Fold change vs veh, CAPN2 / RFU, MED14 / Fold change vs veh, MED14 / RFU, SNORA58 / Fold change vs veh, SNORA58 / RFU, C1orf63 / Fold change vs veh, C1orf63 / RFU, LRRFIP1 / Fold change vs veh, LRRFIP1 / RFU, NDUFAF7 / Fold change vs veh, NDUFAF7 / RFU, SLC12A2 / Fold change vs veh, SLC12A2 / RFU, IBTK / Fold change vs veh, IBTK / RFU, ESF1 / Fold change vs veh, ESF1 / Fold change vs veh, TMEM50B / RFU, TAOK1 / Fold change vs veh, TAOK1 / RFU, ACBD3 / Fold change vs veh, ACBD3 / RFU, TMA16 / Fold change vs veh, TMA16 / RFU, RWDD3 / Fold change vs veh, RWDD3 / RFU, BCAT1 / Fold change vs veh, BCAT1 / RFU, EDEM3 / Fold change vs veh, EDEM3 / RFU, TMEM33 / Fold change vs veh, TMEM33 / RFU, WDR75 / Fold change vs veh, WDR75 / RFU, AHCTF1 / Fold change vs veh, AHCTF1 / RFU, TFRC / Fold change vs veh, TFRC / RFU, ZDHHC17 / Fold change vs veh, ZDHHC17 / RFU, NOM1 / Fold change vs veh, NOM1 / RFU, ARL8B / Fold change vs veh, ARL8B / RFU, ZBTB11 / Fold change vs veh, ZBTB11 / RFU, TAMM41 / Fold change vs veh, TAMM41 / RFU, KIAA1704 /// LOC100996395 / Fold change vs veh, KIAA1704 /// LOC100996395 / RFU, ING1 / Fold change vs veh, ING1 / RFU, TRMT61B / Fold change vs veh, TRMT61B / RFU, FUBP3 / Fold change vs veh, FUBP3 / RFU, TP53 / Fold change vs veh, TP53 / RFU, TNKS2 / Fold change vs veh, TNKS2 / RFU, ZFP14 / Fold change vs veh, ZFP14 / RFU, ACTR2 / Fold change vs veh, ACTR2 / RFU, PPP3R1 / Fold change vs veh, PPP3R1 / RFU, PIK3R1 / Fold change vs veh, PIK3R1 / RFU, HNRNPA1 / Fold change vs veh, HNRNPA1 / RFU, RNF170 / Fold change vs veh, RNF170 / RFU, ZNF28 / Fold change vs veh, ZNF28 / RFU, RNGTT / Fold change vs veh, RNGTT / RFU, OGT / Fold change vs veh, OGT / RFU, BRD1 / Fold change vs veh, BRD1 / RFU, MARS / Fold change vs veh, MARS / RFU, ZNF655 / Fold change vs veh, ZNF655 / RFU, FAHD1 / Fold change vs veh, FAHD1 / RFU, BDP1 / Fold change vs veh, BDP1 / RFU, LRRCC1 / Fold change vs veh, LRRCC1 / RFU, ARID1A / Fold change vs veh, ARID1A / RFU, ZNF146 / Fold change vs veh, ZNF146 / RFU, ZNF330 / Fold change vs veh, ZNF330 / RFU, GPN3 / Fold change vs veh, GPN3 / RFU, C9orf123 / Fold change vs veh, C9orf123 / RFU, N4BP2L2 / Fold change vs veh, N4BP2L2 / RFU, ARFIP1 / Fold change vs veh, ARFIP1 / RFU, FAM179B / Fold change vs veh, FAM179B / RFU, BCL10 / Fold change vs veh, BCL10 / RFU, UHRF1BP1L / Fold change vs veh, UHRF1BP1L / RFU, BET1 / Fold change vs veh, BET1 / RFU, CNOT2 / Fold change vs veh, CNOT2 / RFU, ZNF268 / Fold change vs veh, ZNF268 / Fold change vs veh, ZNF507 / RFU, DGCR2 / Fold change vs veh, DGCR2 / RFU, WDSUB1 / Fold change vs veh, WDSUB1 / Fold change vs veh, HSP90B1 /// MIR3652 / RFU, ADSS / Fold change vs veh, ADSS / RFU, GK / Fold change vs veh, GK / RFU, ZNF148 / Fold change vs veh, ZNF148 / RFU, TAF9 / Fold change vs veh, TAF9 / RFU, SLC1A5 / Fold change vs veh, SLC1A5 / RFU, SLMO2 / Fold change vs veh, SLMO2 / RFU, ABCC4 / Fold change vs veh, ABCC4 / RFU, LOC101060439 /// RAP1B / Fold change vs veh, LOC101060439 /// RAP1B / RFU, RFX7 / Fold change vs veh, RFX7 / RFU, GTPBP10 / Fold change vs veh, GTPBP10 / RFU, CNEP1R1 / Fold change vs veh, CNEP1R1 / RFU, BIVM-ERCC5 /// ERCC5 / Fold change vs veh, BIVM-ERCC5 /// ERCC5 / RFU, ILF3 / Fold change vs veh, ILF3 / RFU 11762660_at / Fold change /veh 11762660_at / RFU VCAN (11757783_s_at) / Fold change /veh VCAN (11757783_s_at) / RFU DDX43 (11728927_at) / Fold change /veh DDX43 (11728927_at) / RFU KRT8 (11758188_x_at) / Fold change /veh KRT8 (11758188_x_at) / RFU NKD1 (11759106_at) / Fold change /veh NKD1 (11759106_at) / RFU SRD5A1 (11742802_a_at) / Fold change /veh SRD5A1 (11742802_a_at) / RFU TPSAB1 /// TPSB2 (11721975_s_at) / Fold change /veh TPSAB1 /// TPSB2 (11721975_s_at) / RFU GSTM3 (11746129_a_at) / Fold change /veh GSTM3 (11746129_a_at) / RFU IL23R (11737362_x_at) / Fold change /veh IL23R (11737362_x_at) / RFU TMEM51 (11727254_a_at) / Fold change /veh TMEM51 (11727254_a_at) / RFU PIWIL2 (11732686_x_at) / Fold change /veh PIWIL2 (11732686_x_at) / RFU ORM1 (11744905_x_at) / Fold change /veh ORM1 (11744905_x_at) / RFU CCDC152 (11743942_at) / Fold change /veh CCDC152 (11743942_at) / RFU ECM1 (11717891_a_at) / Fold change /veh ECM1 (11717891_a_at) / RFU IL23R (11748794_a_at) / Fold change /veh IL23R (11748794_a_at) / RFU TNFAIP8L3 (11732012_x_at) / Fold change /veh TNFAIP8L3 (11732012_x_at) / RFU MBOAT4 (11741988_at) / Fold change /veh MBOAT4 (11741988_at) / RFU 11764193_at / Fold change /veh 11764193_at / RFU TMEM53 (11763286_at) / Fold change /veh TMEM53 (11763286_at) / RFU MAGEB2 (11727129_at) / Fold change /veh MAGEB2 (11727129_at) / RFU TMEM200A (11744735_a_at) / Fold change /veh TMEM200A (11744735_a_at) / RFU CCDC152 (11751479_a_at) / Fold change /veh CCDC152 (11751479_a_at) / RFU FAM211A (11726209_a_at) / Fold change /veh FAM211A (11726209_a_at) / RFU RGS16 (11746705_a_at) / Fold change /veh RGS16 (11746705_a_at) / RFU VCAN (11755009_s_at) / Fold change /veh VCAN (11755009_s_at) / RFU RHOB (11743442_s_at) / Fold change /veh RHOB (11743442_s_at) / RFU RGS16 (11720943_a_at) / Fold change /veh RGS16 (11720943_a_at) / RFU RGS16 (11720944_at) / Fold change /veh RGS16 (11720944_at) / RFU, VPS4B / Fold change vs veh, VPS4B / RFU, CREB1 / Fold change vs veh, CREB1 / RFU, DNAJC13 / Fold change vs veh, DNAJC13 / RFU, GNAQ / Fold change vs veh, GNAQ / RFU, CDK5R1 / Fold change vs veh, CDK5R1 / RFU, ZRANB3 / Fold change vs veh, ZRANB3 / RFU, CUL4A / Fold change vs veh, CUL4A / RFU, CCNY / Fold change vs veh, CCNY / RFU, UFL1 / Fold change vs veh, UFL1 / RFU, COG3 / Fold change vs veh, COG3 / RFU, DIAPH2 / Fold change vs veh, DIAPH2 / RFU, SKA2 / Fold change vs veh, SKA2 / RFU, AFF3 / Fold change vs veh, AFF3 / RFU, LMF1 / Fold change vs veh, LMF1 / RFU, IPO11 / Fold change vs veh, IPO11 / RFU, DFFB / Fold change vs veh, DFFB / RFU, FOXP1 / Fold change vs veh, FOXP1 / RFU, CARD8 / Fold change vs veh, CARD8 / RFU, STRN3 / Fold change vs veh, STRN3 / RFU, ADK / Fold change vs veh, ADK / RFU, RASSF2 / Fold change vs veh, RASSF2 / RFU, WIPF1 / Fold change vs veh, WIPF1 / RFU, LARP1B / Fold change vs veh, LARP1B / RFU, RASA1 / Fold change vs veh, RASA1 / RFU, RB1 / Fold change vs veh, RB1 / RFU, PPFIA1 / Fold change vs veh, PPFIA1 / RFU, MAT2A / Fold change vs veh, MAT2A / RFU, CCT5 / Fold change vs veh, CCT5 / RFU, WDR92 / Fold change vs veh, WDR92 / RFU, CUX1 / Fold change vs veh, CUX1 / RFU, TTC7A / Fold change vs veh, TTC7A / RFU, TMEM135 / Fold change vs veh, TMEM135 / RFU, DEPTOR / Fold change vs veh, DEPTOR / RFU, CPM / Fold change vs veh, CPM / RFU, DNAJB6 / Fold change vs veh, DNAJB6 / RFU, CACNA2D3 / Fold change vs veh, CACNA2D3 / RFU, DTX4 / Fold change vs veh, DTX4 / RFU, TFCP2 / Fold change vs veh, TFCP2 / RFU, GMCL1 /// GMCL1P1 / Fold change vs veh, GMCL1 /// GMCL1P1 / RFU, AEBP2 / Fold change vs veh, AEBP2 / RFU, SNHG1 /// SNORD22 /// SNORD25 /// SNORD26 /// SNORD27 /// SNORD28 /// SNORD29 /// SNORD31 / Fold change vs veh, SNHG1 /// SNORD22 /// SNORD25 /// SNORD26 /// SNORD27 /// SNORD28 /// SNORD29 /// SNORD31 / Fold change (Aza/veh), C12orf56 (ProbeSet 11735607_a_at) / Fold change (ACY-1035/veh), C12orf56 (ProbeSet 11735607_a_at) / Fold change (Aza/veh), FGFR1OP (ProbeSet 11751329_s_at) / Fold change (ACY-1035/veh), FGFR1OP (ProbeSet 11751329_s_at) / Fold change (Aza/veh), VPS36 (ProbeSet 11739960_a_at) / Fold change (ACY-1035/veh), VPS36 (ProbeSet 11739960_a_at) / RFU SYPL1 (11715823_x_at) / Fold change /veh SYPL1 (11715823_x_at) / RFU IGFBP7 (11715501_s_at) / Fold change /veh IGFBP7 (11715501_s_at) / RFU REEP3 (11722064_at) / Fold change /veh REEP3 (11722064_at) / RFU IGLL1 (11728026_x_at) / Fold change /veh IGLL1 (11728026_x_at): dose or concentration left out as unconfirmed. As to conditions: MV-4-11 cells, 48 hours.

With `Nc1ncn([C@@H]2O[C@H](CO)[C@@H](O)[C@H]2O)c(=O)n1` [azacitidine], the “RFU TMPRSS6 (11731388_a_at)” value is recorded as 68.82 RFU.
